Earlier results as cited in patent publication US20130338095A1, “Chemosensory Receptor Ligand-Based Therapies” (ELCELYX THERAPEUTICS, INC., priority 2010, published 2013).

Target: T1, sweet receptor (Homo sapiens, UniProt Q7RTX0+Q8TE23)
T1 sequence (Q8TE23 20-839): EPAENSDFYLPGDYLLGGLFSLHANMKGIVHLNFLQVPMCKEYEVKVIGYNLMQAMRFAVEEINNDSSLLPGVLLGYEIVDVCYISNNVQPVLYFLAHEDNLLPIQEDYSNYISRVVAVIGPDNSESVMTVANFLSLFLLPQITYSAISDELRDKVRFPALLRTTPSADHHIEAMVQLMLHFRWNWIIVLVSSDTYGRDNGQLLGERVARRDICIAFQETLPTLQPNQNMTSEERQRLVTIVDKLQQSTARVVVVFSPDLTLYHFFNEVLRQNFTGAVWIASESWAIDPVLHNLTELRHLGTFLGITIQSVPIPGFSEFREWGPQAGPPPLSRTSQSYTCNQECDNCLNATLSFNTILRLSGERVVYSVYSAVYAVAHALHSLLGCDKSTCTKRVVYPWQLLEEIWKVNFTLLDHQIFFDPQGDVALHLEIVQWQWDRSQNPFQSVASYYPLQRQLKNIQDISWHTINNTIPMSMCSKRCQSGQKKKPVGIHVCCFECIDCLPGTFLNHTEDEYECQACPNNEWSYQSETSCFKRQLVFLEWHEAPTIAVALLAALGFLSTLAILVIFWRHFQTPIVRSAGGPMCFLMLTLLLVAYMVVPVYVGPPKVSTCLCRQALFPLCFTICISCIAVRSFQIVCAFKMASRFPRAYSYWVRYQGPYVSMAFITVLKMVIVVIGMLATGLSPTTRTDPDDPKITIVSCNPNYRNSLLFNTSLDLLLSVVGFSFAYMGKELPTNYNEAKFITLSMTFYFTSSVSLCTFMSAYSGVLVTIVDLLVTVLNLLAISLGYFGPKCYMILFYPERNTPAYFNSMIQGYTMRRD
T1 sequence (Q7RTX0 21-852): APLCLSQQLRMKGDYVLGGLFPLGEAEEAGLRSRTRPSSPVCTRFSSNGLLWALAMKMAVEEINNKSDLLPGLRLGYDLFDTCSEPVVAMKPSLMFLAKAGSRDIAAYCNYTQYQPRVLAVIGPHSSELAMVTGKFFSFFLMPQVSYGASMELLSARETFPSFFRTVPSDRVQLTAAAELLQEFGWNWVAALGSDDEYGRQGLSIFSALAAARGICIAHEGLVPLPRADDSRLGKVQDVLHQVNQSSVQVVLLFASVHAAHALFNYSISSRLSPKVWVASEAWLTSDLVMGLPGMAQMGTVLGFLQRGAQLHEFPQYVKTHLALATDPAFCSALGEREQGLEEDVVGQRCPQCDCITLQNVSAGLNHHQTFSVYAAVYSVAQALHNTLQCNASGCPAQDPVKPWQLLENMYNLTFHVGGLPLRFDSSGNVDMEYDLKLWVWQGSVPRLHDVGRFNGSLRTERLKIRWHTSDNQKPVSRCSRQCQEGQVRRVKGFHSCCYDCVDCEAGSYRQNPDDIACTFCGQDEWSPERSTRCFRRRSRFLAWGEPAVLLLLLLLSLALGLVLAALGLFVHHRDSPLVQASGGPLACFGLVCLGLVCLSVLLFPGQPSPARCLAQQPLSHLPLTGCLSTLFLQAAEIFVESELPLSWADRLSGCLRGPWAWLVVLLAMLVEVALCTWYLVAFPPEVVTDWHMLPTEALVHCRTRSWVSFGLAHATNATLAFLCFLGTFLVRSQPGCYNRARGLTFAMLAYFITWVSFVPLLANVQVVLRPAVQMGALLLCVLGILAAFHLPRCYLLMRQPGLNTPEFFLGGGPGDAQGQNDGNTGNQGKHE
Details: relative sweetness on a weight comparison basis to sucrose (=1.0)

| Compound | Sweetness/potency |
| --- | --- |
| CC(C)=CCC[C@](C)(O)[C@@H]1CCC(C)=CC1=O [(+)-Hernandulcin] | 1,500 |
| Periandrin II | 95 |
| C=C1C[C@@]23CC[C@H]4[C@@](C)(CCC[C@@]4(C)C(=O)O[C@@H]4O[C@H](CO)[C@@H](O)[C@H](O)[C@H]4O)[C@@H]2CC[C@]1(O[C@@H]1O[C@H](CO)[C@@H](O)[C@H](O)[C@H]1O[C@@H]1O[C@@H](C)[C@H](O)[C@@H](O)[C@H]1O)C3 [Dulcoside A] | 30 |
| Cyclocarioside A | 200 |
| COc1c(O)cc2c(c1O)C(=O)[C@H](O)[C@@H](c1ccc(O)c(O)c1)O2 [(2R,3R)-2,3-Dihydro-5,7,3′,4′-tetrahydroxy-6-methoxyflavonol] | 15 |
| COc1c(O)cc2c(c1O)C(=O)[C@H](OC(C)=O)[C@@H](c1ccc(O)cc1)O2 [(2R,3R)-2,3-Dihydro-5,7,4′-trihydroxy-6-methoxy-3-O-acetylflavonol] | 20 |
| COc1ccc(C2Oc3cc(O)cc(O)c3C(=O)C2OC(C)=O)cc1O (centres unmarked) [Dihydroquercetin 3-O-acetate 4′-methyl ether] | 400 |
| C/C(=C\CC/C(C)=C/CO[C@@H]1O[C@H](CO)[C@@H](O)[C@H](O[C@@H]2O[C@@H](C)[C@H](O)[C@@H](O)[C@H]2O)[C@H]1O[C@@H]1O[C@@H](C)[C@H](O)[C@@H](O)[C@H]1O)CC/C=C(\C)CO[C@@H]1O[C@H](CO)[C@@H](O)[C@H](O[C@@H]2O[C@@H](C)[C@H](O)[C@@H](O)[C@H]2O)[C@H]1O[C@@H]1O[C@@H](C)[C@H](O)[C@@H](O)[C@H]1O [Mukurozioside IIb] | ca. 1 |
| CC1(C(=O)O)C=C2C3CCC4C5(C=O)CCC(OC6OC(C(=O)O)C(O)C(O)C6OC6OCC(O)C(O)C6O)C(C)(C)C5CCC4(C)C3(C)CCC2(C)CC1 (centres unmarked) [Periandrin V] | 220 |
| Curculin | 550 |
| O=C/C=C/c1ccccc1 [Trans-Cinnamaldehyde] | 50 |
| Pentadin | 500 |
| COc1ccc([C@H]2Cc3cccc(O)c3C(=O)O2)cc1O [Phyllodulcin] | 400 |
| C=C(C)C1CCC2(C)C(CC(OC3OCC(O)C(O)C3O)C3C(C(C)(O)C/C=C/C(C)(C)O)CCC32C)C1(C)CCC(=O)O (centres unmarked) [Pterocaryoside B] | 100 |
| C[C@@H]1O[C@@H](O[C@H]2O[C@@H]([C@@H](C)C3CC[C@@H]4[C@H]5CC(=O)[C@@H]6C[C@H](O[C@@H]7O[C@H](CO)[C@@H](O)[C@H](O)[C@H]7O[C@@H]7O[C@@H](C)[C@H](O)[C@@H](O)[C@H]7O)CC[C@]6(C)[C@@H]5CC[C@]34C)CC[C@@H]2C)[C@H](O)[C@H](O)[C@H]1O (some centres unmarked) [Osladin] | 500 |
| Scandenoside R6 | 54 |
| Cyclocaryoside I | 250 |
| Baiyunoside | 500 |
| Rebaudioside C | 30 |
| Albiziasaponin B | 600 |
| CC1(C)[C@@H](O[C@H]2O[C@H](C(=O)O)[C@@H](O)[C@H](O)[C@H]2O[C@@H]2OC[C@H](O)[C@H](O)[C@H]2O)CC[C@]2(C)[C@H]3C(=O)C=C4[C@@H]5C[C@@](C)(C(=O)O)CC[C@]5(C)CC[C@@]4(C)[C@]3(C)CC[C@@H]12 [Araboglycyrrhizin] | 150 |

Now from value to compound:

| Sweetness/potency | Compound |
| --- | --- |
| 300 | C[C@@H]1O[C@@H](O[C@H]2[C@H](Oc3cc(O)c(C(=O)CCc4ccc(O)cc4)c(O)c3)O[C@H](CO)[C@@H](O)[C@@H]2O)[C@H](O)[C@H](O)[C@H]1O [Naringin dihydrochalcone] |
| 90 | CC1(C)[C@@H](O[C@@H]2O[C@H](C(=O)O)[C@@H](O)[C@H](O)[C@H]2O[C@@H]2O[C@H](C(=O)O)[C@@H](O)[C@H](O)[C@H]2O)CC[C@]2(C=O)[C@H]3CC[C@@H]4C5=C[C@@](C)(C(=O)O)CC[C@]5(C)CC[C@@]4(C)[C@]3(C)CC[C@@H]12 [Periandrin I] |
| 25 | COc1c(O)cc2c(c1O)C(=O)[C@H](OC(C)=O)[C@@H](c1ccc(O)c(O)c1)O2 [(2R,3R)-2,3-Dihydro-5,7,3′,4′-tetrahydroxy-6-methoxy-3-O-acetylflavonol] |
| 300 | CC1(C(=O)O)CCC2(C)CCC3(C)C(=CC(=O)C4C5(C)CCC(OC6OC(C(=O)O)C(O)C(O)C6OC6OCC(O)(CO)C6O)C(C)(C)C5CCC43C)C2C1 (centres unmarked) [Apioglycyrrhizin] |
| 2,000 | Brazzein (QDKCKKVYENYPVSKCQLANQCNYDCKLDKHARSGECFYDEKRNLQCICDYCEY; UniProt P56552 1-54, looked up) [sweet protein from Pentadiplandra brazzeana] |
| 35 | Oc1ccc([C@H]2Oc3c(c(O)cc4c3[C@H]3c5c(O)cc(O)cc5O[C@@](c5ccc(O)cc5)(O4)[C@@H]3O)[C@H](c3c(O)cc(O)c4c3O[C@H](c3ccc(O)cc3)[C@@H](O)C4)[C@H]2O)cc1 [Selligueain A] |
| 30 | CC1=CC[C@@H]([C@@H](C)[C@H]2CC[C@@]3(C)[C@@H]4CC[C@H]5[C@](C)(C(=O)O)[C@@H](O[C@@H]6O[C@H](CO)[C@@H](O)[C@H](O)[C@H]6O)CC[C@@]56C[C@@]46CC[C@]23C)OC1=O [Abrusoside A] |
| 77 | C/C(=C\CC[C@@H](C)[C@H]1CC[C@@]2(C)[C@@H]3CC=C4[C@@H](CC[C@H](O[C@@H]5O[C@H](CO)[C@@H](O)[C@H](O)[C@H]5O)C4(C)C)[C@]3(C)[C@H](O)C[C@]12C)CO[C@@H]1O[C@H](CO[C@@H]2O[C@H](CO)[C@@H](O)[C@H](O)[C@H]2O)[C@@H](O)[C@H](O)[C@H]1O [Carnosifloside VI] |
| 50 | Pterocaryoside A |
| 13 | C/C=C/c1ccc(OC)cc1 [trans-Anethole] |
| 51 | Carnosifloside V |
| 1,000 | COc1ccc(CCC(=O)c2c(O)cc(O[C@@H]3O[C@H](CO)[C@@H](O)[C@H](O)[C@H]3O[C@@H]3O[C@@H](C)[C@H](O)[C@@H](O)[C@H]3O)cc2O)cc1O [Neohesperidin dihydrochalcone] |
| 1000 | CC[C@@H](C)C(=O)O[C@@H](C)[C@]1(O)CC[C@]2(O)[C@@H]3CC[C@H]4C[C@@H](O[C@@H]5C[C@H](O)[C@H](O[C@H]6C[C@H](OC)[C@H](O[C@H]7C[C@@H](OC)[C@H](O[C@H]8C[C@@H](OC)[C@H](O[C@@H]9O[C@H](C)[C@@H](O[C@@H]%10O[C@H](CO)[C@@H](O)[C@H](O)[C@H]%10O)[C@H](OC)[C@H]9O)[C@@H](C)O8)[C@@H](C)O7)[C@@H](C)O6)[C@@H](C)O5)CC[C@]4(C)[C@H]3C[C@@H](OC(C)=O)[C@]12C [Telosmoside A15] |
| 90 | C=C1C[C@@]23CC[C@H]4[C@@](C)(CCC[C@@]4(C)C(=O)O)[C@@H]2CC[C@]1(O[C@@H]1O[C@H](CO)[C@@H](O)[C@H](O)[C@H]1O[C@@H]1O[C@H](CO)[C@@H](O)[C@H](O)[C@H]1O)C3 [Steviolbioside] |
| 1,600 | Thaumatin |
| 210 | C=C1C[C@@]23CC[C@H]4[C@@](C)(CCC[C@@]4(C)C(=O)O[C@@H]4O[C@H](CO)[C@@H](O)[C@H](O)[C@H]4O)[C@@H]2CC[C@]1(O[C@@H]1O[C@H](CO)[C@@H](O)[C@H](O)[C@H]1O[C@@H]1O[C@H](CO)[C@@H](O)[C@H](O)[C@H]1O)C3 [Stevioside] |
| 50 | CC1=CC[C@@H]([C@@H](C)[C@H]2CC[C@@]3(C)[C@@H]4CC[C@H]5[C@](C)(C(=O)O)[C@@H](O[C@@H]6O[C@H](CO)[C@@H](O)[C@H](O)[C@H]6O[C@@H]6O[C@H](CO)[C@@H](O)[C@H](O)[C@H]6O)CC[C@@]56C[C@@]46CC[C@]23C)OC1=O [Abrusoside C] |
